Counter-ions that a name gives are not always drawn.
Key:
[1] = test system: HT29: human colon cancer cell line; test: Proliferation IC50 assay, oxic/hypoxic, HT29; format: cell-based; settings: Table 3; for IC50: 4 h exposure under aerobic conditions; for HCR (hypoxic cytotoxicity ratio) HT29: IC50(aerobic)/IC10(hypoxic)
[2] = test system: SKOV3: human ovarian carcinoma cell line; test: Proliferation IC50 assay, oxic/hypoxic, SKOV3; format: cell-based; settings: Table 3; for IC50: 4 h exposure under aerobic conditions; for HCR (hypoxic cytotoxicity ratio) SKOV3: IC50(aerobic)/IC10(hypoxic)

| SMILES | melting point | other results |
| --- | --- | --- |
| NS(=O)(=O)c1ccc2c3c(cc([N+](=O)[O-])c2c1)N(C(=O)c1cc2cc(OCCO)ccc2[nH]1)CC3CCl (centres unmarked) | 231 to 234 °C | – |
| NS(=O)(=O)c1ccc2c3c(cc([N+](=O)[O-])c2c1)N(C(=O)c1cc2cc(OCCOP(=O)(O)O)ccc2[nH]1)CC3CCl (centres unmarked) | 207 to 211 °C | – |
| COc1cc2cc(C(=O)N3CC(CCl)c4c3cc([N+](=O)[O-])c3cc(S(=O)(=O)NCCOP(=O)(O)O)ccc43)[nH]c2c(OC)c1OC (centres unmarked) | 228 to 232 °C | – |
| CCC(=O)NS(=O)(=O)c1ccc2c3c(cc([N+](=O)[O-])c2c1)N(C(=O)c1cc2cc(OCCN(C)C)ccc2[nH]1)CC3CCl (centres unmarked) | 221 to 225 °C | – |
| CN(C)CCOc1ccc2[nH]c(C(=O)N3CC(CCl)c4c3cc([N+](=O)[O-])c3c([N+](=O)[O-])cccc43)cc2c1 (centres unmarked) (as salt: HCl) [Compound 2, 1-(Chloromethyl)-3-(5-[2-(dimethylamino)ethoxy]indol-2-carbonyl)-5,6-dinitro-1,2-dihydro-3H-benzo[e]indole] | 225 to 226 °C | – |
| CN(C)CCOc1ccc2[nH]c(C(=O)N3CC(CCl)c4c3cc([N+](=O)[O-])c3cc([N+](=O)[O-])ccc43)cc2c1 (centres unmarked) (as salt: HCl) [Compound 9, 1-(Chloromethyl)-3-{5-[2-(dimethylamino)ethoxy]indol-2-carbonyl}-5,7-dinitro-1,2-dihydro-3H-benzo[e]indole] | 263 to 264 °C | – |
| COC(=O)c1ccc2c3c(cc([N+](=O)[O-])c2c1)N(C(=O)c1cc2cc(OCCN(C)C)ccc2[nH]1)CC3CCl (centres unmarked) (as salt: HCl) [Compound 14, Methyl 1-(chloromethyl)-3-{5-[2-(dimethylamino)ethoxy]indol-2-carbonyl}-5-nitro-1,2-dihydro-3H-benzo[e]indole-7-carboxylate] | > 300 °C | – |
| CN(C)CCOc1ccc2[nH]c(C(=O)N3CC(CCl)c4c3cc([N+](=O)[O-])c3cc(C(=O)NCCO)ccc43)cc2c1 (centres unmarked) (as salt: HCl) [Compound 19, 1-(Chloromethyl)-3-(5-[2-(dimethylamino)ethoxy]indol-2-carbonyl)-N-(2-hydroxyethyl)-5-nitro-1,2-dihydro-3H-benzo[e]indole-7-carboxamide] | 231 to 233 °C (dec.) | – |
| CN(C)CCOc1ccc2[nH]c(C(=O)N3CC(CCl)c4c3cc([N+](=O)[O-])c3cc(C#N)ccc43)cc2c1 (centres unmarked) (as salt: HCl) [Compound 22, 1-(Chloromethyl)-3-{5-[2-(dimethylamino)ethoxy]indol-2-carbonyl}-5-nitro-1,2-dihydro-3H-benzo[e]indole-7-carbonitrile] | > 300 °C | – |
| CN(C)CCOc1ccc2[nH]c(C(=O)N3CC(CCl)c4c3cc([N+](=O)[O-])c3cc(S(C)(=O)=O)ccc43)cc2c1 (centres unmarked) (as salt: HCl) [Compound 24, 1-(Chloromethyl)-3-{5-[2-(dimethylamino)ethoxy]indol-2-carbonyl}-7-(methylsulfonyl)-5-nitro-1,2-dihydro-3H-benzo[e]indole] | 250 to 252 °C | – |
| CN(C)CCOc1ccc2[nH]c(C(=O)N3CC(CCl)c4c3cc([N+](=O)[O-])c3cc(S(N)(=O)=O)ccc43)cc2c1 (centres unmarked) (as salt: HCl) [Compound 26, 1-(Chloromethyl)-3-{5-[2-(dimethylamino)ethoxy]indol-2-carbonyl}-5-nitro-1,2-dihydro-3H-benzo[e]indole-7-sulfonamide] | > 350 °C | – |
| CNS(=O)(=O)c1ccc2c3c(cc([N+](=O)[O-])c2c1)N(C(=O)c1cc2cc(OCCN(C)C)ccc2[nH]1)CC3CCl (centres unmarked) (as salt: HCl) [Compound 32, 1-(Chloromethyl)-3-{5-[2-(dimethylamino)ethoxy]indol-2-carbonyl}-N-methyl-5-nitro-1,2-dihydro-3H-benzo[e]indole-7-sulfonamide] | > 350 °C | – |
| CN(C)CCOc1ccc2[nH]c(C(=O)N3CC(CCl)c4c3cc([N+](=O)[O-])c3cc(S(=O)(=O)N(C)C)ccc43)cc2c1 (centres unmarked) (as salt: HCl) [Compound 38, 1-(Chloromethyl)-3-{5-[2-(dimethylamino)ethoxy]indol-2-carbonyl}-N,N-dimethyl-5-nitro-1,2-dihydro-3H-benzo[e]indole-7-sulfonamide] | > 350 °C | – |
| COc1cc2cc(C(=O)N3CC(CCl)c4c3cc([N+](=O)[O-])c3ccc(C(=O)NCCN(C)C)cc43)[nH]c2c(OC)c1OC (centres unmarked) (as salt: HCl) [Compound 44, 1-(Chloromethyl)-N-[2-(dimethylamino)ethyl]-5-nitro-3-(5,6,7-trimethoxyindol-2-carbonyl)-1,2-dihydro-3H-benzo[e]indole-8-carboxamide] | 228 to 229 °C (dec.) | – |
| CN(C)CCOc1ccc2[nH]c(C(=O)N3CC(CCl)c4c3cc([N+](=O)[O-])c3ccc(S(C)(=O)=O)cc43)cc2c1 (centres unmarked) (as salt: HCl) [Compound 47, 1-(Chloromethyl)-3-{5-[2-(dimethylamino)ethoxy]indol-2-carbonyl}-8-(methylsulfonyl)-5-nitro-1,2-dihydro-3H-benzo[e]indole] | > 300 °C | – |
| CN(C)CCOc1ccc2[nH]c(C(=O)N3CC(CCl)c4c3cc([N+](=O)[O-])c3cccc([N+](=O)[O-])c43)cc2c1 (centres unmarked) (as salt: HCl) [Compound 52, 1-(Chloromethyl)-3-{5-[2-(dimethylamino)ethoxy]indol-2-carbonyl}-5,9-dinitro-1,2-dihydro-3H-benzo[e]indole] | 187 to 191 °C | – |
| CN(C)CCOc1ccc2[nH]c(C(=O)N3CC(CCl)c4c3cc([N+](=O)[O-])c3ccc(C(N)=O)cc43)cc2c1 (centres unmarked) (as salt: TFA) [Compound 43, 1-(Chloromethyl)-3-{5-[2-(dimethylamino)ethoxy]indol-2-carbonyl}-5-nitro-1,2-dihydro-3H-benzo[e]indole-8-carboxamide] | > 320 °C | – |
| COC(=O)c1ccc2c([N+](=O)[O-])cc3c(c2c1)C(CCl)CN3C(=O)c1cc2cc(OCCN(C)C)ccc2[nH]1 (centres unmarked) [Compound 42, Methyl 1-(chloromethyl)-3-{5-[2-(dimethylamino)ethoxy]indol-2-carbonyl}-5-nitro-1,2-dihydro-3H-benzo[e]indole-8-carboxylate] | – | IC50 ([1]; Homo sapiens, HT-29): 550 nM; HCR (hypoxic cytotoxicity ratio) HT29 [1]: 1.6; IC50 ([2]; Homo sapiens, SK-OV-3): 520 nM; HCR (hypoxic cytotoxicity ratio) SKOV3 [2]: 2.4 |
| COc1cc2cc(C(=O)N3CC(CCl)c4c3cc([N+](=O)[O-])c3ccc(C(=O)NCCN(C)C)cc43)[nH]c2c(OC)c1OC (centres unmarked) [Compound 44, 1-(Chloromethyl)-N-[2-(dimethylamino)ethyl]-5-nitro-3-(5,6,7-trimethoxyindol-2-carbonyl)-1,2-dihydro-3H-benzo[e]indole-8-carboxamide] | – | IC50 ([1]; Homo sapiens, HT-29): 1300 nM; HCR (hypoxic cytotoxicity ratio) HT29 [1]: 2.4; IC50 ([2]; Homo sapiens, SK-OV-3): 2500 nM; HCR (hypoxic cytotoxicity ratio) SKOV3 [2]: 16 |
| COc1cc2cc(C(=O)N3CC(CCl)c4c3cc([N+](=O)[O-])c3cccc([N+](=O)[O-])c43)[nH]c2c(OC)c1OC (centres unmarked) [Compound 51, 1-(Chloromethyl)-5,9-dinitro-(5,6,7-trimethoxyindol-2-carbonyl)-1,2-dihydro-3H-benzo[e]indole] | – | IC50 [1]: 34000 nM; HCR (hypoxic cytotoxicity ratio) HT29 [1]: 1.2; IC50 [2]: 55000 nM |
| COc1cc2cc(C(=O)N3CC(CCl)c4c3cc([N+](=O)[O-])c3ccccc43)[nH]c2c(OC)c1OC (centres unmarked) [Compound R1, reference compound] | – | IC50 ([1]; Homo sapiens, HT-29): 3400 nM; HCR (hypoxic cytotoxicity ratio) HT29 [1]: 2.5; IC50 ([2]; Homo sapiens, SK-OV-3): 4200 nM; HCR (hypoxic cytotoxicity ratio) SKOV3 [2]: 2.8 |
